Laboratory results taken from ChEMBL document CHEMBL3826966, “A chromatography-free isolation of rohitukine from leaves of Dysoxylum binectariferum: Evaluation for in vitro cytotoxicity, Cdk inhibition and physicochemical properties” (Bioorg Med Chem Lett, 2016).

Assays:
[1] = target: MAP kinase-interacting serine/threonine-protein kinase 1 (Homo sapiens) (UniProt Q9BUB5); test: Inhibition of human MNK1 (2 to 424 residues) assessed as remaining enzyme activity at 50 uM after 30 mins by 33P-ATP filter-binding assay
[2] = target: Calcium/calmodulin-dependent protein kinase type 1 (Homo sapiens) (UniProt Q14012); test: Inhibition of human CAMK1 (1 to 541 residues) assessed as remaining enzyme activity at 50 uM after 30 mins by 33P-ATP filter-binding assay
[3] = target: Myosin light chain kinase, smooth muscle (Homo sapiens) (UniProt Q15746); test: Inhibition of human SmMLCK (475 to 838 residues) assessed as remaining enzyme activity at 50 uM after 30 mins by 33P-ATP filter-binding assay
[4] = target: AMP-activated protein kinase, AMPK (Homo sapiens) (UniProt P54646+O43741+P54619+Q9UGJ0+Q9Y478+Q13131+Q9UGI9); test: Inhibition of human AMPK assessed as remaining enzyme activity at 50 uM after 30 mins by 33P-ATP filter-binding assay; type: protein-complex assay
[5] = target: Serine/threonine-protein kinase BRSK1 (Homo sapiens) (UniProt Q8TDC3); test: Inhibition of human BRSK1 (2 to 778 residues) assessed as remaining enzyme activity at 50 uM after 30 mins by 33P-ATP filter-binding assay
[6] = target: Serine/threonine-protein kinase BRSK2 (Homo sapiens) (UniProt Q8IWQ3); test: Inhibition of human BRSK2 (2 to 674residues) assessed as remaining enzyme activity at 50 uM after 30 mins by 33P-ATP filter-binding assay
[7] = target: Casein kinase II (Homo sapiens) (UniProt P67870+P68400+P19784); test: Inhibition of human CK2 assessed as remaining enzyme activity at 50 uM after 30 mins by 33P-ATP filter-binding assay; type: protein-complex assay
[8] = target: Tau-tubulin kinase 1 (Homo sapiens) (UniProt Q5TCY1); test: Inhibition of human TTBK1 (1 to 1321 residues) assessed as remaining enzyme activity at 50 uM after 30 mins by 33P-ATP filter-binding assay
[9] = target: Homeodomain-interacting protein kinase 3 (Homo sapiens) (UniProt Q9H422); test: Inhibition of human HIPK3 (161 to 562 residues) assessed as remaining enzyme activity at 50 uM after 30 mins by 33P-ATP filter-binding assay
[10] = target: Dual specificity protein kinase CLK2 (Homo sapiens) (UniProt P49760); test: Inhibition of human CLK2 (138 to 499 residues) assessed as remaining enzyme activity at 50 uM after 30 mins by 33P-ATP filter-binding assay
[11] = target: Serine/threonine-protein kinase 3 (Homo sapiens) (UniProt Q13188); test: Inhibition of human MST2 (2 to 491 residues) assessed as remaining enzyme activity at 50 uM after 30 mins by 33P-ATP filter-binding assay
[12] = target: Dual specificity testis-specific protein kinase 1 (Homo sapiens) (UniProt Q15569); test: Inhibition of human TESK1 (1 to 345 residues) assessed as remaining enzyme activity at 50 uM after 30 mins by 33P-ATP filter-binding assay
[13] = target: Serine/threonine-protein kinase OSR1 (Homo sapiens) (UniProt O95747); test: Inhibition of human OSR1 assessed as remaining enzyme activity at 50 uM after 30 mins by 33P-ATP filter-binding assay
[14] = target: Proto-oncogene tyrosine-protein kinase Src (Homo sapiens) (UniProt P12931); test: Inhibition of human Src (1 to 536 residues) assessed as remaining enzyme activity at 50 uM after 30 mins by 33P-ATP filter-binding assay
[15] = target: Tyrosine-protein kinase ABL1 (Homo sapiens) (UniProt P00519); test: Inhibition of human ABL (118 to 535 residues) assessed as remaining enzyme activity at 50 uM after 30 mins by 33P-ATP filter-binding assay
[16] = target: Insulin-like growth factor 1 receptor (Homo sapiens) (UniProt P08069); test: Inhibition of human IGF1R (954 to 1367 residues) assessed as remaining enzyme activity at 50 uM after 30 mins by 33P-ATP filter-binding assay
[17] = target: Insulin receptor-related protein (Homo sapiens) (UniProt P14616); test: Inhibition of human IRR (944 to 1236 residues) assessed as remaining enzyme activity at 50 uM after 30 mins by 33P-ATP filter-binding assay
[18] = Cell cycle arrest in human HL60 cells assessed as accumulation at G2 phase at 5 uM (reference value: 5 %); type: functional, cell-based; settings: HL-60
[19] = Stability in pH 6.8 buffer at 120 ug/ml after 8 hrs by RP-HPLC analysis; type: physicochemical; settings: pH 6.8, 8 h
[20] = Stability in pH 7.4 buffer at 120 ug/ml after 8 hrs by RP-HPLC analysis; type: physicochemical; settings: pH 7.4, 8 h
[21] = Stability in SGF solution at 120 ug/ml after 8 hrs by RP-HPLC analysis; type: physicochemical; settings: simulated gi fluid
[22] = Cytotoxicity against human PANC1 cells assessed as cell growth inhibition after 48 hrs by MTT assay; type: functional; settings: PANC-1, 48 h
[23] = Cytotoxicity against human BxPC3 cells assessed as cell growth inhibition after 48 hrs by MTT assay; type: functional; settings: BXPC-3, 48 h
ASPC1 = test: Cytotoxicity against human AsPC1 cells assessed as cell growth inhibition after 48 hrs by MTT assay; type: functional; settings: ASPC1, 48 h
[24] = Cytotoxicity against human Hs578T cells assessed as cell growth inhibition after 48 hrs by MTT assay; type: functional; settings: Hs-578T
T47D = test: Cytotoxicity against human T47D cells assessed as cell growth inhibition after 48 hrs by MTT assay; type: functional
U-251 = test: Cytotoxicity against human U251 cells assessed as cell growth inhibition after 48 hrs by MTT assay; type: functional; settings: U-251, 48 h
[25] = target: Dual specificity mitogen-activated protein kinase kinase 6 (Homo sapiens) (UniProt P52564); test: Inhibition of human MKK6 (2 to 334 residues) assessed as remaining enzyme activity at 50 uM after 30 mins by 33P-ATP filter-binding assay
[26] = target: Mitogen-activated protein kinase 15 (Homo sapiens) (UniProt Q8TD08); test: Inhibition of human ERK8 (2 to 544 residues) assessed as remaining enzyme activity at 50 uM after 30 mins by 33P-ATP filter-binding assay
[27] = target: RAC-alpha serine/threonine-protein kinase (Homo sapiens) (UniProt P31749); test: Inhibition of human PKBalpha assessed as remaining enzyme activity at 50 uM after 30 mins by 33P-ATP filter-binding assay
MAP4K2 = test: Inhibition of human GCK (2 to 812 residues) assessed as remaining enzyme activity at 50 uM after 30 mins by 33P-ATP filter-binding assay
MAP3K9 = test: Inhibition of human MLK1 (132 to 413 residues) assessed as remaining enzyme activity at 50 uM after 30 mins by 33P-ATP filter-binding assay

Calcium/calmodulin-dependent protein kinase type 1 (Homo sapiens), sequence (Q14012 whole entry, looked up, the tested form may be a part): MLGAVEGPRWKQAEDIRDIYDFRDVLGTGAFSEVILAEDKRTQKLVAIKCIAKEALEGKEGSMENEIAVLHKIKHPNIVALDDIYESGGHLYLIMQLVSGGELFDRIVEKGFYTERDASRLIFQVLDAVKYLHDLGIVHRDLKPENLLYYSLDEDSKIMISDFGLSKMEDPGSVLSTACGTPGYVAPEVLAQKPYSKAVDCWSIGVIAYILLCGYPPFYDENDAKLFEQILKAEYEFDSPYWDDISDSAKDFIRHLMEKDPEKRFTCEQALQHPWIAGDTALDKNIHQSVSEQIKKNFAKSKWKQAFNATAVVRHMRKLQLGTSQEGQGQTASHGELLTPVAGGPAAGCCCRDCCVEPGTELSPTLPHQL
Mitogen-activated protein kinase 15 (Homo sapiens), sequence (Q8TD08 whole entry, the tested form may be a part): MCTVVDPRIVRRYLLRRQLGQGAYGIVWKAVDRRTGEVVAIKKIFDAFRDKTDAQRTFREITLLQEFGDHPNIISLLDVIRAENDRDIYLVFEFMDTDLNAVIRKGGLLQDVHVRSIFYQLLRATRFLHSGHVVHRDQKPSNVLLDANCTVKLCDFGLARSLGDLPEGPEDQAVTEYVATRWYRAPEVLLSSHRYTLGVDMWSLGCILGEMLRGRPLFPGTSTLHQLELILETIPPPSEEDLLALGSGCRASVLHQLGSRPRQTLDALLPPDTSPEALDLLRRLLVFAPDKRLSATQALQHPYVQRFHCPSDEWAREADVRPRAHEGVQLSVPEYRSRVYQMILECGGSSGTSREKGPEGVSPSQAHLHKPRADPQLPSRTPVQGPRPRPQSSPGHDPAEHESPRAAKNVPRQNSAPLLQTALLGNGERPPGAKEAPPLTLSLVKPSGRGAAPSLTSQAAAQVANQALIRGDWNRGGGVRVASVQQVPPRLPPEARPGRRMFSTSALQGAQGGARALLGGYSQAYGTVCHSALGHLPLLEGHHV
Serine/threonine-protein kinase 3 (Homo sapiens), sequence (Q13188 whole entry, the tested form may be a part): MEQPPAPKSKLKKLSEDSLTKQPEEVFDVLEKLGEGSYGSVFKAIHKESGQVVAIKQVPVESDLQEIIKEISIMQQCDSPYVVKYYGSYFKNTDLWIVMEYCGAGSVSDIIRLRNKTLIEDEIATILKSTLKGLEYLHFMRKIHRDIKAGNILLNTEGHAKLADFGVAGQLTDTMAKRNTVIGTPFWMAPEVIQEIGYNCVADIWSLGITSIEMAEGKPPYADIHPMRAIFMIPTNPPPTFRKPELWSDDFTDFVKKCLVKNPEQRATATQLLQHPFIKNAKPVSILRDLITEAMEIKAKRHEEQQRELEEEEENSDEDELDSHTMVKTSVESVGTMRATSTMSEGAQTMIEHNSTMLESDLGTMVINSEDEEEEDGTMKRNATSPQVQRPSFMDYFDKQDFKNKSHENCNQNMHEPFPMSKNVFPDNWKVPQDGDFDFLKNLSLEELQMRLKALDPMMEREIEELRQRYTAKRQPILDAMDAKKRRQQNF
Dual specificity testis-specific protein kinase 1 (Homo sapiens), sequence (Q15569 whole entry, looked up, the tested form may be a part): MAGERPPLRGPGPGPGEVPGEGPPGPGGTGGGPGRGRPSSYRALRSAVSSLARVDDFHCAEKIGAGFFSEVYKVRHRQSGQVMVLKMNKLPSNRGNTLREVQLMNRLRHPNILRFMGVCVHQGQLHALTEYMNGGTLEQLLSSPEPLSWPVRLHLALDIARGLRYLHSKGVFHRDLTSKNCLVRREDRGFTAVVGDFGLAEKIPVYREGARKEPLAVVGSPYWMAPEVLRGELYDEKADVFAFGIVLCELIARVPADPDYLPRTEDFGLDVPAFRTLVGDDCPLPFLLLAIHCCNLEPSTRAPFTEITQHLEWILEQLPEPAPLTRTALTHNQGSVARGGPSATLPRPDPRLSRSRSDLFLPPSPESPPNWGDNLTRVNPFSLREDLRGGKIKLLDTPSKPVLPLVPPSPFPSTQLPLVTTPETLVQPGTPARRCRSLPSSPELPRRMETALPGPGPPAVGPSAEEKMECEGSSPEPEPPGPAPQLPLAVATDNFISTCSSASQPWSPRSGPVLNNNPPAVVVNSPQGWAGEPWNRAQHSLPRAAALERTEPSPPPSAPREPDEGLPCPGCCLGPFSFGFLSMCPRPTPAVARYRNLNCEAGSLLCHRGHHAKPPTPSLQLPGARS
Dual specificity mitogen-activated protein kinase kinase 6 (Homo sapiens), sequence (P52564 whole entry, the tested form may be a part): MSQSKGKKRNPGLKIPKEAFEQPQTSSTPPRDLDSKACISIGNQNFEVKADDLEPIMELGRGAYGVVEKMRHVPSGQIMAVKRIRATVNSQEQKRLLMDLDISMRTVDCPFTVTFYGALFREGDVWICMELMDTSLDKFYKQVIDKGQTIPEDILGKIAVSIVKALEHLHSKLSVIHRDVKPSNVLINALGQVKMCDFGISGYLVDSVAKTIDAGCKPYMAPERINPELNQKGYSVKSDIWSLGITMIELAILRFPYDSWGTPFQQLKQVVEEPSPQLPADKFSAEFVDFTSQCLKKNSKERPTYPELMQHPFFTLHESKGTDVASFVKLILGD
Tau-tubulin kinase 1 (Homo sapiens), sequence (Q5TCY1 whole entry, the tested form may be a part): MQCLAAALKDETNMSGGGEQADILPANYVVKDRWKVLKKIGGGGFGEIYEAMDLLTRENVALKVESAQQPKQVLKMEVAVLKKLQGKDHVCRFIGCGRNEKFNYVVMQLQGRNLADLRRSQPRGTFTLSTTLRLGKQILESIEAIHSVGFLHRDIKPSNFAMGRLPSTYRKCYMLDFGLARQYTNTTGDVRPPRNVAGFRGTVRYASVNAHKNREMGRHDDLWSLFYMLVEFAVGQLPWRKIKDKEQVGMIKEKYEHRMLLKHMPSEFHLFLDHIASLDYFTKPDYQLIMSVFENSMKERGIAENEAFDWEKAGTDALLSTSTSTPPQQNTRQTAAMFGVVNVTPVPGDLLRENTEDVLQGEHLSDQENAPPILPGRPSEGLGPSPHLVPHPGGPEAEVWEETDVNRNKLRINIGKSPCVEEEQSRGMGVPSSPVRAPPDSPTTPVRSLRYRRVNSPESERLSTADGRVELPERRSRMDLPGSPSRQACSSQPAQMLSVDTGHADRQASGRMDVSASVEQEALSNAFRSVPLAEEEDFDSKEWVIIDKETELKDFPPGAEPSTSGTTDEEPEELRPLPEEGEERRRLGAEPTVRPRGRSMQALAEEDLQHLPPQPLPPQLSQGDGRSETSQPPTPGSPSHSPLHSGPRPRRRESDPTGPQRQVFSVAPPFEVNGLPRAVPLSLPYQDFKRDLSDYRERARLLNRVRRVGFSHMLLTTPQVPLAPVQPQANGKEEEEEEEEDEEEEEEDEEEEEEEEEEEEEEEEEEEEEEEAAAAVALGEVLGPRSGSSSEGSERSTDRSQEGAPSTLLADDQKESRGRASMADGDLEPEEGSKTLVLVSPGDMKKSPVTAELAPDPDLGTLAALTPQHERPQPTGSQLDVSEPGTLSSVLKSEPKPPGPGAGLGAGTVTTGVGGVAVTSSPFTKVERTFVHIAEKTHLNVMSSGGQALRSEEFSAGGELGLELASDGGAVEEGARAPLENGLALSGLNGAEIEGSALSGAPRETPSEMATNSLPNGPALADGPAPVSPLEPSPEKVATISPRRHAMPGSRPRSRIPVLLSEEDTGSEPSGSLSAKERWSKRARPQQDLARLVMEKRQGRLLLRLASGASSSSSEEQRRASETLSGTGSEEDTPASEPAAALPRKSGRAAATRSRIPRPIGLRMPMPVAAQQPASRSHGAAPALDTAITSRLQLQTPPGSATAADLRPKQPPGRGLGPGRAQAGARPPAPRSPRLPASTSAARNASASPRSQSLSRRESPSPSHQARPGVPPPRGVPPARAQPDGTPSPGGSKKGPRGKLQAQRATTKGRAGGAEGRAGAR
Serine/threonine-protein kinase BRSK2 (Homo sapiens), sequence (Q8IWQ3 whole entry): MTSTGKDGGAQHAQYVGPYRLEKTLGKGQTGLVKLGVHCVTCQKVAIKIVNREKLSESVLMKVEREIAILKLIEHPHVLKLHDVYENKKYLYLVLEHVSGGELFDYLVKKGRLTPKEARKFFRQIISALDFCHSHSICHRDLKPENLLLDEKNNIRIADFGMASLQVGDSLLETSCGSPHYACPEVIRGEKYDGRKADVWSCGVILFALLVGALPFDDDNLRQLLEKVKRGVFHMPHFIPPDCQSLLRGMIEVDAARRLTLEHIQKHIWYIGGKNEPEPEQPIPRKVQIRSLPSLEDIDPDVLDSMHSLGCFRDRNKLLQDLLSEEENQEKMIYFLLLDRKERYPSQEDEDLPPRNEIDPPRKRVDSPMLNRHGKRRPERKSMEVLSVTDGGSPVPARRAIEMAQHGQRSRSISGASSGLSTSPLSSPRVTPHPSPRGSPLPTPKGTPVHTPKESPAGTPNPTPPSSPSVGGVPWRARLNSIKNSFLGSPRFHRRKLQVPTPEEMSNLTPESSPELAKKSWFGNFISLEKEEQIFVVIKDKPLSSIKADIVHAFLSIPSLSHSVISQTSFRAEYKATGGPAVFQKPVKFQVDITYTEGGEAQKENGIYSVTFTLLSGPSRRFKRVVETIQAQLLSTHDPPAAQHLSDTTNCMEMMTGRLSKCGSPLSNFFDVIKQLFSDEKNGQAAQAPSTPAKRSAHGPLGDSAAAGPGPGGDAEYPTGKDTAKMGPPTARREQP
Proto-oncogene tyrosine-protein kinase Src (Homo sapiens), sequence (P12931 2-536 limits assumed): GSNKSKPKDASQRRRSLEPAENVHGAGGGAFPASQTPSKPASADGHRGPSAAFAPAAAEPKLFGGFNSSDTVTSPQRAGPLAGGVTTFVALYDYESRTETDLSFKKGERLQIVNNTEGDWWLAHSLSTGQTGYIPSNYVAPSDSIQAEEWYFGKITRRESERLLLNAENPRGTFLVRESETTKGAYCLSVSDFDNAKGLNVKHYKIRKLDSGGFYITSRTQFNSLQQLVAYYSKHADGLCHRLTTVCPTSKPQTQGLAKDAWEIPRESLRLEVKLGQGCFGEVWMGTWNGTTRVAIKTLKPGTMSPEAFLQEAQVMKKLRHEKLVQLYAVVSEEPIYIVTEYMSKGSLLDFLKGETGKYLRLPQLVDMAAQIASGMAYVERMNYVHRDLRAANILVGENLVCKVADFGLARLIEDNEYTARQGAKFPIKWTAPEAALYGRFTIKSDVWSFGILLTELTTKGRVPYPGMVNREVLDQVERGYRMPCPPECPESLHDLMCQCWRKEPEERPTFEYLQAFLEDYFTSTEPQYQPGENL

Activity [1]: 88%
Activity [2]: 76%
Activity [3]: 78%
Activity [4]: 16%
Activity [5]: 36%
Activity [6]: 65%
Activity [7]: 90%
Activity [8]: 82%
Activity [9]: 100%
Activity [10]: 45%
Activity [11]: 46%
Activity [12]: 88%
Activity [13]: 93%
Activity [14]: 61%
Activity [15]: 87%
Activity [16]: 113%
Activity [17]: 53%
Stability [19]: Stable
Stability [20]: Stable
Stability [21]: Stable
Activity [25]: 89%
Activity [27]: 76%
Activity (MAP4K2): 17%
Activity (MAP3K9): 47%
SMILES: Cc1cc(=O)c2c(O)cc(O)c([C@H]3CCN(C)C[C@H]3O)c2o1 [ROHITUKINE]
Activity [18]: 11%
GI50 [22]: 22 µM
GI50 [23]: 20 µM
GI50 (ASPC1): 21 µM
GI50 [24]: 20 µM
GI50 (T47D): 24 µM
GI50 (U-251): 32 µM
Activity [26]: 19%
